From US11382956B2, “Amylin analogues” (Zealand Pharma A/S, priority 2016, dated 2022)
Numbered stars: 1 amine (or outer) side, 2 acyl side, 3 side chain; on linkers, the order of the positions; unused ones are H or OH. Bridge positions count the residues as written; N and C are the ends. Square brackets hold non-standard residues; d marks the D form. Peptide text beside a SMILES is read from it. * marks the point of attachment. C20 diacid = O=C(O)CCCCCCCCCCCCCCCCCCC(=O)*; γGlu = O=C(O)[C@H](CCC(=O)[*:2])N[*:1]; Hyp = O=C(O)[C@@H]1C[C@@H](O)CN1; NMeI = CC[C@H](C)[C@H](NC)C(=O)O; Orn = NCCC[C@H](N)C(=O)O; Sar = CNCC(=O)O

Tests used:
[1] = target: T1, recombinant human calcitonin receptor (hCT-R) (Homo sapiens, UniProt P30988); test: hCT-R cAMP assay (AlphaScreen) in 1321N1 cells; assay type: cell-based; details: cAMP formation, 45 min stimulation
T1 construct: host or cells: human astrocytoma cell line 1321N1
T1 sequence (P30988 25-474): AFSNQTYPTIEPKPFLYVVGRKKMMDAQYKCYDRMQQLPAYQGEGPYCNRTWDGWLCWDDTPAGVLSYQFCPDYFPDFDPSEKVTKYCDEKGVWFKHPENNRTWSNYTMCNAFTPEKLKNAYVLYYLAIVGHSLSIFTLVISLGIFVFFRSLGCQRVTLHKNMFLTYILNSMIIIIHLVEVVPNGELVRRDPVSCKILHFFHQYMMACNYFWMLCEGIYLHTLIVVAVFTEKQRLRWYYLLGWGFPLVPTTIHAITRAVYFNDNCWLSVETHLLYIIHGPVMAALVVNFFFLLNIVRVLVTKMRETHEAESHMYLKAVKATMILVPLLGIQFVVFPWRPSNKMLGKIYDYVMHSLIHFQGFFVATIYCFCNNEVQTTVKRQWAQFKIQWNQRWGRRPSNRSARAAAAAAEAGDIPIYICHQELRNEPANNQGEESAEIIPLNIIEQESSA
In short: (§1)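 EC50 values come from curve fits over at least 7 peptide concentrations, with cAMP read by AlphaScreen competition after 1 h in the dark. Cells were 1321N1 lines carrying human calcitonin receptor, with RAMP3 co-expressed for AMY3, treated 45 min at room temperature in the presence of IBMX.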

[2] = target: T2, recombinant human amylin 3 receptor (hAMYR3) (Homo sapiens, UniProt O60896+P30988); test: hAMYR3 cAMP assay (AlphaScreen) in 1321N1 cells; assay type: cell-based; details: cAMP formation, 45 min stimulation
T2 construct: host or cells: human astrocytoma cell line 1321N1
T2 sequence (P30988 25-474): T1 sequence (P30988 25-474)
T2 sequence (O60896 24-148 partner): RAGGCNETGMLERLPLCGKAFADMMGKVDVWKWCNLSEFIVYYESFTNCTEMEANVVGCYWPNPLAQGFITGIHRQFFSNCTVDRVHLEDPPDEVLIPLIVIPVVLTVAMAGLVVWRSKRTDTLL
In short: as §1

[3] = Assessment of physical stability: fibril formation by Thioflavin T fluorescence; assay type: physicochemical; parameters: key: FND = fibrillation not detected; FD = fibrillation detected; details: 1 mg/mL peptide; for Fibrillation (in buffer) pH4 acetate: 50 mM acetate buffer pH 4.0, 96 hours at 40° C.; for Fibrillation (in buffer) pH7 histidine: 50 mM histidine buffer pH 7.0, 96 hours at 40° C.; for Fibrillation (in buffer) pH7 phosphate: 50 mM phosphate buffer pH 7.0, 96 hours at 40° C.
Procedure: Solutions containing (i) 1 mg/mL of test peptide, 40 μM ThT and 50 mM phosphate (Ph) buffer (pH 7.0), (ii) 1 mg/mL of test peptide, 40 μM ThT and 50 mM histidine (His) buffer (pH 7.0), and (iii) 1 mg/mL of test peptide, 40 μM ThT and 50 mM acetate (Ac) buffer (pH 4.0), were loaded in a 96-well black fluorescence plate (clear bottom) in triplicate. Data were collected at fixed intervals of 10 min, each preceded by 300 s of automixing (agitation), over a period of 96 hours at 40° C. Physical stability is determined by measuring the fluorescence intensity over time. A significant increase in intensity is rated as fibrillation detected (FD).

[4] = Assessment of chemical stability in 40 mM buffers at 40° C. (RP-HPLC); assay type: physicochemical; details: 1 mg/mL; for % degradation after 72 h at 40° C. pH4 acetate: acetate buffer pH 4, 72 h; for % degradation after 72 h at 40° C. pH6 phosphate: phosphate buffer pH 6, 72 h; for % degradation after 72 h at 40° C. pH7 phosphate: phosphate buffer pH 7, 72 h
Procedure: Samples of each test peptide were dissolved in acetate buffer pH 4 and phosphate buffer pH 6 and 7 (all buffer 40 mM). The final peptide concentration was 1 mg/mL. Samples were placed in glass vials and incubated at 40° C. The samples were analyzed by RP-HPLC on a C8 column with gradient elution using a trifluoroacetic acid/acetonitrile/water eluent system. The area-percentage (area-%) of the main peak was determined by UV spectroscopy at 220 nm at each sampling time point.
The % degradation was calculated by subtracting the […].
The results of the chemical stability assessment after 3 days of incubation time are summarized as % degradation in Table 1 (below).
The results of the chemical stability assessment after 14 days of incubation time are summarized as % degradation in Table 2 (below).

| EC50 [1] [nM] | EC50 [2] [nM] | Fibrillation (in buffer) pH4 acetate [3] | Fibrillation (in buffer) pH7 histidine [3] | Fibrillation (in buffer) pH7 phosphate [3] | % degradation after 72 h at 40° C. pH4 acetate [4] [%] | % degradation after 72 h at 40° C. pH6 phosphate [4] [%] | % degradation after 72 h at 40° C. pH7 phosphate [4] [%] | % degradation after 14 days at 40° C. pH4 acetate ([4]; acetate buffer pH 4, 14 days) [%] | % degradation after 14 days at 40° C. pH6 phosphate ([4]; phosphate buffer pH 6, 14 days) [%] | % degradation after 14 days at 40° C. pH7 phosphate ([4]; phosphate buffer pH 7, 14 days) [%] | SMILES |
| --- | --- | --- | --- | --- | --- | --- | --- | --- | --- | --- | --- |
| 0.129 | 0.059 | FND | FND | FND | <1 | <1 | <1 | – | – | – | CC[C@H](C)[C@@H](C(=O)N[C@@H](CC(C)C)C(=O)N[C@@H](CO)C(=O)N[C@@H](CO)C(=O)N[C@H](C(=O)N[C@@H](CCC(=O)O)C(=O)N[C@H](C(=O)NCC(=O)N[C@@H](CO)C(=O)N[C@@H](CC(N)=O)C(=O)N[C@H](C(=O)N1C[C@H](O)C[C@H]1C(N)=O)[C@@H](C)O)C(C)C)[C@@H](C)O)N(C)C(=O)[C@H](C)NC(=O)CN(C)C(=O)[C@H](Cc1ccccc1)NC(=O)[C@H](CO)NC(=O)[C@H](CO)NC(=O)[C@H](CCCNC(=N)N)NC(=O)[C@H](CCC(N)=O)NC(=O)[C@H](CC(C)C)NC(=O)[C@H](Cc1ccccc1)NC(=O)[C@H](Cc1c[nH]cn1)NC(=O)[C@H](C)NC(=O)[C@H](CC(C)C)NC(=O)[C@H](CCCNC(=N)N)NC(=O)[C@H](CCC(N)=O)NC(=O)[C@@H](NC(=O)[C@H](C)NC(=O)[C@@H]1CCCNC(=O)C[C@H](NC(=O)[C@H](CCCNC(=N)N)NC(=O)CC[C@H](NC(=O)CCCCCCCCCCCCCCCCCCC(=O)O)C(=O)O)C(=O)NCC(=O)N[C@@H]([C@@H](C)O)C(=O)N[C@@H](C)C(=O)N[C@@H]([C@@H](C)O)C(=O)N1)[C@@H](C)O [Compound 8, [19CD]-isoGlu-RD()GTAT-Orn()-ATQRLAHFLQRSSF-Gly(Me)-A-Ile(Me)-LSSTEVGSNT-Hyp-NH2] ({C20 diacid-γGlu}-RDGTAT[Orn]ATQRLAHFLQRSSF[Sar]A[NMeI]LSSTEVGSNT[Hyp]-NH2; lactam 2-7) |
| 0.345 | 0.068 | FD | FND | FND | <1 | <1 | <1 | 1.9 | 1.8 | 9.1 | CC[C@H](C)[C@@H](C(=O)N[C@@H](CC(C)C)C(=O)N[C@@H](CO)C(=O)N[C@@H](CO)C(=O)N[C@H](C(=O)N[C@@H](CCC(=O)O)C(=O)N[C@H](C(=O)NCC(=O)N[C@@H](CO)C(=O)N[C@@H](CC(N)=O)C(=O)N[C@H](C(=O)N1C[C@H](O)C[C@H]1C(N)=O)[C@@H](C)O)C(C)C)[C@@H](C)O)N(C)C(=O)[C@H](C)NC(=O)CN(C)C(=O)[C@H](Cc1ccccc1)NC(=O)[C@H](CO)NC(=O)[C@H](CO)NC(=O)[C@H](CCCNC(=N)N)NC(=O)[C@H](CCC(N)=O)NC(=O)[C@H](CC(C)C)NC(=O)[C@H](Cc1ccccc1)NC(=O)[C@H](CCCNC(=N)N)NC(=O)[C@H](C)NC(=O)[C@H](CC(C)C)NC(=O)[C@H](CCCNC(=N)N)NC(=O)[C@H](CCC(=O)O)NC(=O)[C@@H](NC(=O)[C@H](C)NC(=O)[C@@H]1CCCNC(=O)C[C@H](NC(=O)[C@H](CCCNC(=N)N)NC(=O)CC[C@H](NC(=O)CCCCCCCCCCCCCCCCCCC(=O)O)C(=O)O)C(=O)NCC(=O)N[C@@H]([C@@H](C)O)C(=O)N[C@@H](C)C(=O)N[C@@H]([C@@H](C)O)C(=O)N1)[C@@H](C)O [Compound 10, [19CD]-isoGlu-RD()GTAT-Orn()-ATERLARFLQRSSF-Gly(Me)-A-Ile(Me)-LSSTEVGSNT-Hyp-NH2] ({C20 diacid-γGlu}-RDGTAT[Orn]ATERLARFLQRSSF[Sar]A[NMeI]LSSTEVGSNT[Hyp]-NH2; lactam 2-7) |
| 0.068 | 0.024 | FND | FND | FND | <1 | <1 | <1 | – | – | – | CC[C@H](C)[C@@H](C(=O)N[C@@H](CC(C)C)C(=O)N[C@@H](CO)C(=O)N[C@@H](CO)C(=O)N[C@H](C(=O)N[C@@H](CCC(=O)O)C(=O)N[C@H](C(=O)NCC(=O)N[C@@H](CO)C(=O)N[C@@H](CC(N)=O)C(=O)N[C@H](C(=O)N1C[C@H](O)C[C@H]1C(N)=O)[C@@H](C)O)C(C)C)[C@@H](C)O)N(C)C(=O)[C@H](C)NC(=O)CN(C)C(=O)[C@H](Cc1ccccc1)NC(=O)[C@H](CO)NC(=O)[C@H](CO)NC(=O)[C@H](CCCNC(=N)N)NC(=O)[C@H](CCC(N)=O)NC(=O)[C@H](CC(C)C)NC(=O)[C@H](Cc1ccccc1)NC(=O)[C@H](Cc1c[nH]cn1)NC(=O)[C@H](C)NC(=O)[C@H](CC(C)C)NC(=O)[C@H](CCCNC(=N)N)NC(=O)[C@H](CCC(=O)O)NC(=O)[C@@H](NC(=O)[C@H](C)NC(=O)[C@@H]1CCCCNC(=O)C[C@H](NC(=O)[C@H](CCC(=O)O)NC(=O)CC[C@H](NC(=O)CCCCCCCCCCCCCCCCCCC(=O)O)C(=O)O)C(=O)NCC(=O)N[C@@H]([C@@H](C)O)C(=O)N[C@@H](C)C(=O)N[C@@H]([C@@H](C)O)C(=O)N1)[C@@H](C)O [Compound 11, [19CD]-isoGlu-ED()GTATK()ATERLAHFLQRSSF-Gly(Me)-A-Ile(Me)-LSSTEVGSNT-Hyp-NH2] ({C20 diacid-γGlu}-EDGTATKATERLAHFLQRSSF[Sar]A[NMeI]LSSTEVGSNT[Hyp]-NH2; lactam 2-7) |
| 0.058 | 0.025 | FND | FND | FND | 1.2 | <1 | <1 | – | – | – | CC[C@H](C)[C@@H](C(=O)N1CCC[C@H]1C(=O)N[C@@H](CO)C(=O)N[C@@H](CO)C(=O)N[C@H](C(=O)N[C@@H](CCC(=O)O)C(=O)N[C@H](C(=O)NCC(=O)N[C@@H](CO)C(=O)N[C@@H](CC(N)=O)C(=O)N[C@H](C(=O)N1C[C@H](O)C[C@H]1C(N)=O)[C@@H](C)O)C(C)C)[C@@H](C)O)N(C)C(=O)[C@H](C)NC(=O)CN(C)C(=O)[C@H](Cc1ccccc1)NC(=O)[C@H](CO)NC(=O)[C@H](CO)NC(=O)[C@H](CCCNC(=N)N)NC(=O)[C@H](CCC(N)=O)NC(=O)[C@H](CC(C)C)NC(=O)[C@H](Cc1ccccc1)NC(=O)[C@H](Cc1c[nH]cn1)NC(=O)[C@H](C)NC(=O)[C@H](CC(C)C)NC(=O)[C@H](CCCNC(=N)N)NC(=O)[C@H](CCC(=O)O)NC(=O)[C@@H](NC(=O)[C@H](C)NC(=O)[C@@H]1CCCCNC(=O)C[C@H](NC(=O)[C@H](CCCNC(=N)N)NC(=O)CC[C@H](NC(=O)CCCCCCCCCCCCCCCCCCC(=O)O)C(=O)O)C(=O)NCC(=O)N[C@@H]([C@@H](C)O)C(=O)N[C@@H](C)C(=O)N[C@@H]([C@@H](C)O)C(=O)N1)[C@@H](C)O [Compound 17, [19CD]-isoGlu-RD()GTATK()ATERLAHFLQRSSF-Gly(Me)-A-Ile(Me)-PSSTEVGSNT-Hyp-NH2] ({C20 diacid-γGlu}-RDGTATKATERLAHFLQRSSF[Sar]A[NMeI]PSSTEVGSNT[Hyp]-NH2; lactam 2-7) |
